The text below walks through data of the NIST ThermoML archive (doi:10.1016/j.tca.2008.10.019).

± gives the expanded uncertainty stated by the source.

For series [1] the following is noted: Crystal; DTA.
A short description of series [2]: Molar enthalpy of transition or fusion. As to conditions: Crystal; DSC.

For the compound `NC(=O)CC(N)=O` [1,3-propanedioic acid, diamide], the Normal melting temperature in series [1] came out at 170.00 ± 0.5 °C. In series [2], the “Molar enthalpy of transition or fusion” value came out at 5.55 ± 0.172 kcal/mol.
